# Data reported in US10617750B2, “Partner of SLD five 1 (PSF1)-derived peptide” (Vasculead Inc., priority 2012, dated 2020).
# No end group written: not given here.
# Columns and labels:
# [1] = tested on: T2 cells; experiment: Human CTL cytotoxic assay; assay type: cell-based
# Protocol: Specifically, assay conditions were set with reference to a method described in a known report (New CFSE-based assay to determine susceptibility to lysis by cytotoxic T cells of leukemic precursor cells within a heterogeneous target cell population. Jedema I. et al. Blood 2004; 103:2677-2682).
# As target cells for use in the cytotoxic assay, 1 μM of CellTracker™ Green CMFDA (5-chloromethylfluorescein diacetate) (Invitrogen Corp., Carlsbad, Calif.) was added to T2 cells, and these cells were allowed to react with each other at 37° C. for 15 minutes. The T2 cells were labeled with CMFDA, which is a fluorescent marker, washed with AIM-V, supplemented with assay peptides (20 μg/ml), and incubated for one night. As target cells of a negative control, T2 cells only labeled with a fluorescent marker were used (without peptide addition). The cells were washed with an AIM-V culture medium including antibiotic and serum to have a concentration of 5×10^4 cells/ml.
# The cells were prepared to have concentrations of 50, 15, 5×10^4 cells/ml after washing with AIM-V. The preparation was performed with an AIM-V culture medium including antibiotic and serum.
# Target cells (T) supplemented with peptides used in CTL induction or target cells (T) of a negative control supplemented with no peptides were mixed with effector cells (E) at a cell ratio (E/T ratio) of 10:1, 3:1, and 1:1, and cocultured for one night. Immediately before measurement with a MACS Quant (Miltenyi Biotec, San Diego, Calif.) or a FACS Aria, 0.1 μg/ml of DAPI was added in order to distinguish living cells from dead cells by means of staining. In an analysis, the proportion of DAPI-negative cells (living cells) in target cells labeled with CMFDA was obtained, and the survival rate of target cells was calculated using incubation conditions (only for target cells) where coculture with effector cells was not performed as 100%.
# [2] = tested on: peptide specific human CTL; experiment: Human CTL induction assay (IFN-γ ELISPOT); assay type: cell-based; conditions: for Positive donor number: HLA-A0201 healthy volunteers, positive = difference of 50 or more peptide specific spots; for Donor positive percentage: positive donors / donors examined
# Protocol: A human CTL induction assay was conducted under conditions with reference to a known report (Harano et al. Int. J. Cancer 2008; 123:2616-2625).
# Heparinized peripheral blood of healthy volunteers having HLA-A0201 was subjected to centrifugation at 3000 rpm for 20 minutes, thereby removing plasma. Cell pellets were supplemented with HBSS(−) (Wako Pure Chemical Industries, Ltd, Richmond, Va.) to which 5 mM of HEPES (SIGMA, Carlsbad, Calif.) had been added, and were suspended, thereby overlaying the suspension over a Ficoll-paque PREMIUM (GE Healthcare, Ltd., Pittsburgh, Pa.). Then, 400 g of the resulting substance was subjected to centrifugation for 40 minutes, and peripheral blood […] cells (PBMCs) separated as an intermediate layer were collected.
# PBMCs were supplemented with CD14 microbeads (Miltenyi Biotec K.K.), and caused to react at 4° C. for 15 minutes. The cells were passed through LS columns (Miltenyi Biotec K.K., Tokyo, Japan), and CD14-positive cells were obtained by using QuadroMACS™ Separator (Miltenyi Biotec K.K., Tokyo, Japan). The rest of the cells were collected and washed, and then supplemented with CD8 microbeads (Miltenyi Biotec K.K., Tokyo, Japan) and allowed to react at 4° C. for 15 minutes. Thereafter, a similar process is performed, thereby obtaining CD8-positive cells. The CD14-positive cells were subjected to differentiation induction to monocyte-derived dendritic cells (Mo-DCs), and CD8-positive cells were temporarily frozen for storage.
# Since CD8-positive cells were subjected to antigen stimulation twice, peptide-presenting cells were produced twice accordingly. CD14-positive cells were disseminated in two RepCell plates (CellSeed Inc., Tokyo, Japan), and incubated in a 5% CO2 incubator at 37° C. with a culture solution in which 100 ng/ml GM-CSF (R&D Systems, Minneapolis, Minn.) and 10 ng/ml IL-4 (R&D Systems) were added to an AIM-V (Invitrogen Corporation, Carlsbad, Calif.) culture medium including antibiotic and serum.
# First production of peptide-presenting cells was started 5-7 days after the start of incubation. To one of the plates, 0.1 KE/ml OK-432 (Chugai Pharmaceutical Co., Ltd., Tokyo, Japan) was added, and on the next day, cells were collected and inoculated in a 96-well U-bottom plate. Then, 20 μg/ml of assay peptide of one type was added to each half area (48 wells) of the plate, and incubated for one day at 37° C. in a 5% CO2 incubator, thereby producing peptide-presenting cells. Second production was performed similarly on the other plate 12-14 days after the start of incubation.
# Peptide-presenting cells in a 96-well plate were irradiated with X rays (30 Gy), and the frozen stored CD8-positive cells were added to all the wells, thereby performing first antigen stimulation. As a culture solution, a solution in which 10 ng/ml IL-7 (R&D Systems, Minneapolis, Minn.) was added to an AIM-V culture medium including antibiotic and serum was used. After incubation for seven days, cells included in supernatant were collected and cocultured with peptide-presenting cells (after X-ray irradiation) obtained by the second production, thereby performing second antigen stimulation in the 96-well plate. At this time, 20 U/mL of IL-2 (Shionogi & Co., Ltd., Florham Park, N.J.) was added to the culture solution. After further incubation for seven days, cells in supernatant including CTL were collected and washed with an AIM-V culture medium including antibiotic and serum to have a concentration of approximately 2×10^5 cells/ml per well, thereby obtaining responder cells for an ELISPOT assay.
# T2 cells of stimulator cells for use in an ELISPOT assay were produced by incubating the cells for one night in an AIM-V culture medium supplemented with an assay peptide (20 μg/mL). As stimulator cells of a negative control, only T2 cells were used (without peptides). […]
# [3] = tested on: peptide specific CTL; experiment: CTL inducibility of peptides (summary statement); assay type: cell-based
# Excerpt: According to the embodiments of the present invention, the phrase “having CTL inducibility” means that the peptide is recognized by a specific CTL. In other word, the peptide has an ability to induce a peptide specific CTL. […] The ability to induce the peptide specific CTL can be examined by, for example, determining whether or not a cytokine such as interferon-γ (IFN-γ) is produced by peptide-stimulated peripheral blood mononuclear cells (PBMCs) in response to antigen presenting cells which are pulsed with said peptide using the ELISA technique or the like. In addition, cytotoxic activity of the induced CTL can be determined by the ^51Cr-release assay and the like. The peptide of the present invention is preferred to have 8 to 14, more preferably 8 to 11 and especially, 9 or 10 amino acid residues in view of good recognition by CTL.
# These all three peptides are located in the region from 79 to 100 of PSF1 (FIG. 3). […] (SEQ ID NO.:6) or […] (SEQ ID NO.: 8) or […]
# [4] = tested on: peptide specific CTL through HLA-A02; experiment: Mouse CTL induction assay (IFN-γ ELISPOT after peptide immunization); assay type: in vivo; conditions: CB6F1-Tg (HLA-A0201/H2-Kb) mice, 50 μg peptide/mice, spleen cells two weeks after injection; IFN-γ spots minus negative control peptide
# Protocol: The mouse CTL inducing activity with peptides was determined by using mouse immune models. Regarding mice, CB6F1-Tg (HLA-A0201/H2-Kb)A0201 was obtained from Taconic Biosciences, Inc. At most five types of peptide solutions dissolved in DMSO were mixed to produce a PBS solution, and the PBS solution was mixed together with the same amount of MONTANIDE ISA 51VG (SEPPIC), thereby producing an emulsion antigen solution. Then, 50 μL of the antigen solution was used for hypodermic injection into each of two sites at both sides of the belly of the mice (50 μg peptide/mice, N=3-4). Two weeks after the injection, spleen was removed, and spleen cells from which erythrocyte had been eliminated with a solution (BD Pharm Lyse™, Becton, Dickinson and Company, La Jolla, Calif.) were collected as responder cells for an ELISPOT assay.
# The ELISPOT assay was conducted by detecting IFN-γ produced from responder cells. The procedure thereof conformed to an accompanying document of an assay kit, Mouse IFN-γ ELISpot^PLUS (MABTECH, Cincinnati, Ohio). Preincubation for the IFN-γ production was performed by adding cells to a 96-well plate included in the assay kit. Stimulator cells were inoculated in a duplicate well or a single well of 5×10^4 cell/100 μL/well, and then responder cells were added to 2×10^6 cell/100 μL/well. After one-night coculture, the cells were removed and the well was washed, and then primary antibodies (biotin-antimouse IFN-γ antibodies) included in the assay kit were added. After reaction for two hours at room temperature, the well was washed, supplemented with secondary antibodies (streptavidin-ALP), and subjected to reaction for one hour at room temperature. After having been sufficiently washed, the cells were supplemented with a substrate solution and left for one minute at room temperature. To terminate coloring reaction, the plate was sufficiently washed with running water and was air-dried.
# The number of blue spots observed at the well bottom was measured with an ImmunoSpot® S5 Verse Analyzer (Cellular Technology Limited, Shaker Heights, Ohio). Measurement values of unclear spots because of a wide range of coloring were not used. An average value was obtained for the duplicate well, and the difference from the negative control was calculated in order to obtain the number of spots specific to peptides. The average value and the SD value were calculated by using values for individual mice, and the case having a positive number of differences between the average value and the SD value was determined as positive.
sequence,measurement,setting,value
ALRWEYGSV,cytotoxic activity,[1],particularly high
"ALRWEYGSVL [PSF1-derived peptide, initiating amino acid no; 89]",Survival rate of target cells pulsed with peptide vs not pulsed,"[1]; CTL line specific to the peptide cocultured with T2 cells at E:T 1:1, 3:1, 10:1, FIG. 2",decreased to a degree greater than target cells not pulsed with peptides
same,Positive donor number,[2],2
same,Donor positive percentage,[2],100%
same,CTL inducibility,[3],high
"ALYEQNQDSV [PSF1-derived peptide, initiating amino acid no; 38]",Specific spot number (Ave ± SD),[4],30 ± 15
"AYLYDRLLRI [PSF1-derived peptide, initiating amino acid no; 78]",Specific spot number (Ave ± SD),[4],23 ± 21
same,CTL inducibility,[3],high
"CLKDYGEFEV [PSF1-derived peptide, initiating amino acid no; 152]",Specific spot number (Ave ± SD),[4],53 ± 28
"EMKALYEQN [PSF1-derived peptide, initiating amino acid number 35]",Positive donor number,[2],1
same,Donor positive percentage,[2],13%
same,Specific spot number (Ave ± SD),[4],6 ± 8
"FLPRWKCEQL [PSF1-derived peptide, initiating amino acid no; 176]",Specific spot number (Ave ± SD),[4],31 ± 24
"GDEGLDITQDMKP [PSF1-derived peptide, initiating amino acid number 130]",Positive donor number,[2],0
same,Donor positive percentage,[2],0%
same,Specific spot number (Ave ± SD),[4],1 ± 2
"KAMELIREL [PSF1-derived peptide, initiating amino acid no]",Specific spot number (Ave ± SD),[4],22 ± 13
LIRNRRCTV,Specific spot number (Ave ± SD),[4],7 ± 9
"LPAFNEDGLRQV [PSF1-derived peptide, initiating amino acid number 21]",Positive donor number,[2],0
same,Donor positive percentage,[2],0%
same,Specific spot number (Ave ± SD),[4],3 ± 8
"QVLEEMKAL [PSF1-derived peptide, initiating amino acid no; 31]",Specific spot number (Ave ± SD),[4],7 ± 7
"RALRWEYGSV [PSF1-derived peptide, initiating amino acid no; 88]",Positive donor number,[2],3
same,Donor positive percentage,[2],60%
same,CTL inducibility,[3],high
RALRWEYGSVLPN,cytotoxic activity,[1],particularly high
"SLATYMRSL [PSF1-derived peptide, initiating amino acid no; 120]",Specific spot number (Ave ± SD),[4],70 ± 79
"SLLRNRRCTV [PSF1-derived peptide, initiating amino acid no; 68]",Specific spot number (Ave ± SD),[4],1 ± 2
"SLYIEVRCL [PSF1-derived peptide, initiating amino acid no; 145]",Positive donor number,[2],2
same,Donor positive percentage,[2],100%
same,Specific spot number (Ave ± SD),[4],43 ± 24
"VLPNALRFHM [PSF1-derived peptide, initiating amino acid no; 97]",Specific spot number (Ave ± SD),[4],127 ± 41
YLYDRLLRI,cytotoxic activity,[1],particularly high
"YLYDRLLRIR [PSF1-derived peptide, initiating amino acid no; 79]",Specific spot number (Ave ± SD),[4],165 ± 17
same,CTL inducibility,[3],high
